Reference: ChEMBL document CHEMBL1201862, “PubChem BioAssay data set” (2004)
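Assay format: 96-well plates, 48-hour exposure. GI50 marks 50% less growth.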 Calls of active or inactive are those of the source. Rule as the data show it: active = GI50 up to about 1.1 µM and inactive = higher.

What was measured:
Experiment in all cases: inhibition of tumour cell growth, NCI panel, 48 h
[1] = system: A498
[2] = system: CCRF-CEM
[3] = system: COLO 205
[4] = system: DMS-273
[5] = system: HT-29
[6] = system: MOLT-4
[7] = system: NCI-H460
[8] = system: OVCAR-8
[9] = system: SF-539
[10] = system: SK-MEL-5
[11] = system: SN12C
[12] = system: SR
[13] = system: UACC-62
[14] = system: KM12
[15] = system: M14
[16] = system: OVCAR-3
[17] = system: RXF 393

Measured: GI50

COc1ccccc1-c1cc(O)c2cc3c(cc2n1)OCO3
inactive: [1] 11.9 µM | [2] 18.7 µM | [3] 17.2 µM | [4] 19.6 µM | [5] 28.4 µM | [6] 23.2 µM | [7] 30.3 µM | [8] 28.3 µM | [9] 25.1 µM | [10] 5.19 µM | [11] 45.2 µM | [12] 29.3 µM | [13] 31.6 µM

O=C(NO)c1ccc([N+](=O)[O-])cc1
inactive: [1] 21.9 µM | [2] 26 µM | [3] 31.1 µM | [4] 43.8 µM | [5] 48 µM | [14] 64.9 µM | [15] 40.9 µM | [6] 25.8 µM | [7] 50.2 µM | [16] 44.7 µM | [8] 25.2 µM | [17] 18.3 µM | [9] 24.5 µM | [10] 70.3 µM | [11] 94.2 µM | [13] 19.7 µM

COC(=O)c1c2c(cc3c1CC1(Cc4cc5c(c(C(C)=O)c4C1)CCC5)C3)CCC2 (stereo unspecified)
inactive: [2] > 100 µM | [3] > 100 µM | [4] 29.9 µM | [5] 40.3 µM | [14] > 100 µM | [15] > 100 µM | [6] 38.2 µM | [7] 36.9 µM | [16] > 100 µM | [8] 54.5 µM | [17] 20.2 µM | [9] 34.6 µM | [10] 31.8 µM | [11] 91.8 µM | [12] 43.7 µM | [13] 44.9 µM

Cc1cc(Cl)ccc1N1C(=O)C(=O)C(c2nc3ccccc3s2)C(=O)C1=O
inactive: [1] > 100 µM | [2] > 100 µM | [3] > 100 µM | [4] > 100 µM | [5] > 100 µM | [14] > 100 µM | [15] > 100 µM | [6] > 100 µM | [7] > 100 µM | [16] > 100 µM | [8] > 100 µM | [9] > 100 µM | [10] > 100 µM | [11] > 100 µM | [12] > 100 µM | [13] > 100 µM

Cc1c(C(=O)O)n(C)c(=O)n(C)c1=O
inactive: [1] > 100 µM | [2] > 100 µM | [3] > 100 µM | [4] > 100 µM | [5] > 100 µM | [14] > 100 µM | [15] > 100 µM | [6] > 100 µM | [7] > 100 µM | [16] > 100 µM | [8] > 100 µM | [17] > 100 µM | [9] > 100 µM | [10] > 100 µM | [11] > 100 µM | [13] > 100 µM

Clc1ccc(SC(/C=C/NNC2=NN=C(c3ccccc3)C(c3ccccc3)N2)c2ccccc2)cc1 (stereo unspecified)
inactive: [1] 28.2 µM | [2] 17.1 µM | [3] 20.8 µM | [4] 26.2 µM | [5] 15.1 µM | [14] 21 µM | [15] 18.5 µM | [6] 11.2 µM | [7] 26.2 µM | [16] 11.8 µM | [8] 28.2 µM | [17] 6.28 µM | [9] 26.4 µM | [10] 14.7 µM | [11] 29.4 µM | [13] 27.6 µM

NC(=O)/C=C/C(=O)O
inactive: [2] > 5000 µM | [3] > 5000 µM | [4] > 5000 µM | [5] > 5000 µM | [14] > 5000 µM | [15] > 5000 µM | [6] > 5000 µM | [7] > 5000 µM | [8] > 5000 µM | [17] > 5000 µM | [9] > 5000 µM | [10] > 5000 µM | [11] > 5000 µM | [12] > 5000 µM | [13] > 5000 µM

CC[N+](C)(C)c1ccc(C(=C2C=CC(=[N+](C)C)C=C2)c2ccc(N(C)C)cc2)cc1
inactive: [1] 15.9 µM | [2] 7.05 µM | [3] 5.31 µM | [4] 6.4 µM | [5] 4.93 µM | [14] 4.55 µM | [15] 11 µM | [6] 12.4 µM | [7] 5.74 µM | [16] 10.5 µM | [8] 12.8 µM | [17] 37.3 µM | [9] 12.8 µM | [10] 13.4 µM | [11] 4.39 µM | [12] 10.6 µM | [13] 6.55 µM

CC1=NN(C(=O)Cc2ccccc2)C(=O)/C1=C\c1cccc(O)c1
inactive: [2] > 100 µM | [3] > 100 µM | [4] > 100 µM | [5] > 100 µM | [14] > 100 µM | [15] > 100 µM | [6] > 100 µM | [7] > 100 µM | [16] > 100 µM | [8] > 100 µM | [9] > 100 µM | [10] > 100 µM | [11] > 100 µM | [12] > 100 µM

NC1=NN(c2ccccc2)C(=O)C1C(=O)C(=O)NC1C2CC3CC(C2)CC1C3 (stereo unspecified)
inactive: [2] > 100 µM | [3] > 100 µM | [4] > 100 µM | [5] > 100 µM | [14] > 100 µM | [15] > 100 µM | [6] > 100 µM | [7] > 100 µM | [16] > 100 µM | [8] > 100 µM | [17] > 100 µM | [9] > 100 µM | [10] > 100 µM | [11] > 100 µM | [12] > 100 µM | [13] > 100 µM

CN(C)Cc1[nH]c2ccccc2c1C(=O)c1ccccc1
inactive: [2] > 100 µM | [3] > 100 µM | [4] > 100 µM | [5] > 100 µM | [14] > 100 µM | [15] > 100 µM | [6] > 100 µM | [7] > 100 µM | [16] > 100 µM | [8] > 100 µM | [9] > 100 µM | [10] 58.1 µM | [12] 88.3 µM | [13] > 100 µM

C/C(=N\NC(=O)CC(=O)N(C(=O)c1ccc(Cl)cc1)c1ccc(C)cc1)c1ccccc1O
inactive: [1] 73.6 µM | [2] 5.45 µM | [3] 16.9 µM | [4] 31.7 µM | [5] 48.1 µM | [14] 9.68 µM | [15] 81.7 µM | [6] 5.79 µM | [7] 21.4 µM | [16] 14 µM | [8] 18.7 µM | [17] 18.3 µM | [9] 43.4 µM | [10] > 100 µM | [11] > 100 µM | [13] > 100 µM

Cc1ccc(N2C(=O)C(Cl)=C(Cl)C2=O)cc1
inactive: [1] > 100 µM | [2] 5.11 µM | [3] 16.1 µM | [4] 62.5 µM | [5] 19.1 µM | [14] 20.5 µM | [15] 19.2 µM | [6] 16.4 µM | [7] > 100 µM | [16] 16.9 µM | [17] 12.5 µM | [9] 25.2 µM | [10] 40.9 µM | [11] 18.7 µM | [12] 21.3 µM | [13] > 10 µM
